Test system: tobacco budworm (Heliothis virescens)
Experiment: Tobacco budworm (Heliothis virescens) I: 96-well microtiter plates with insect diet and eggs, egg and larval mortality
Format: in vivo
Conditions: 120 h, read-out: mortality (egg and larval mortality, visually assessed)
Experimental: B.1 Tobacco Budworm (Heliothis virescens) I
For evaluating control of tobacco budworm (Heliothis virescens) the test unit consisted of 96-well-microtiter plates containing an insect diet and 15-25 H. virescens eggs. The compounds were formulated using a solution containing 75% v/v water and 25% v/v DMSO. Different concentrations of formulated compounds were sprayed onto the insect diet at 10 μl, using a custom built micro atomizer, at two replications. After application, microtiter plates are incubated at about 28±1° C. and about 80±5% relative humidity for 5 days. Egg and larval mortality is then visually assessed.

SMILES: Cc1cc(C2=NOC(c3cc(Cl)cc(Cl)c3)(C(F)(F)F)C2)ccc1C=NNC(=O)NCC(F)(F)F (centres unmarked) [Compound 1-1, 4-[5-(3,5-dichloro-phenyl)-5-trifluoromethyl-4,5-dihydro-isoxazol-3-yl]-2-methyl-benzaldehyde-4-trifluoroethylsemicarbazone]
- mortality at 2500 ppm: ≥ 75%

SMILES: CC(=NNC(=O)NCC(F)(F)F)c1ccc(C2=NOC(c3cc(Cl)cc(Cl)c3)(C(F)(F)F)C2)cc1C (centres unmarked) [Compound 1-19, 1-{4-[5-(3,5-dichloro-phenyl)-5-trifluoromethyl-4,5-dihydro-isoxazol-3-yl]-2-methyl-phenyl}-ethanone-4-trifluoroethylsemicarbazone]
- mortality at 2500 ppm: ≥ 75%

— patent publication US9085541B2, “Process for producing imine compounds for combating invertebrate pests” (priority 2010, dated 2015)
